Test results taken from the NIST ThermoML archive (doi:10.1016/j.jct.2017.09.022).
Values joined by “and” are separate entries in the source; they are usually repeats but may differ in a detail not shown here. Equal entries are not always repeated. ± gives the expanded uncertainty stated by the source.

Experiment: molar heat capacity at constant pressure
Settings: 101.33 kPa, Crystal, Small (less than 1 g) adiabatic calorimetry

C[C@@H](O)[C@H](N)C(=O)O [L-threonine]
Settings | molar heat capacity at constant pressure
63.96 K | 43.87 ± 0.74 J/K/mol
64.76 K | 44.47 ± 0.75 J/K/mol
65.57 K | 44.98 ± 0.76 J/K/mol
66.38 K | 45.55 ± 0.76 J/K/mol
67.19 K | 46.09 ± 0.77 J/K/mol
67.99 K | 46.67 ± 0.78 J/K/mol
68.8 K | 47.24 ± 0.79 J/K/mol
69.61 K | 47.68 ± 0.8 J/K/mol
70 K | 48.06 ± 0.83 J/K/mol
70.54 K | 48.31 ± 0.81 J/K/mol
71.58 K | 49.14 ± 0.82 J/K/mol
72.63 K | 49.7 ± 0.83 J/K/mol
73.67 K | 50.33 ± 0.84 J/K/mol
74.72 K | 50.78 ± 0.85 J/K/mol
75.77 K | 51.34 ± 0.86 J/K/mol
76.82 K | 51.96 ± 0.87 J/K/mol
77.87 K | 52.51 ± 0.88 J/K/mol
78.92 K | 53.08 ± 0.89 J/K/mol
79.65 K | 53.03 ± 0.89 J/K/mol
79.97 K | 53.66 ± 0.9 J/K/mol
80 K | 53.55 ± 0.83 J/K/mol
80.45 K | 53.52 ± 0.9 J/K/mol
81.02 K | 54.31 ± 0.91 J/K/mol
81.25 K | 53.96 ± 0.91 J/K/mol
82.06 K | 54.87 ± 0.91 J/K/mol and 54.48 ± 0.91 J/K/mol
82.86 K | 54.97 ± 0.92 J/K/mol
83.11 K | 55.52 ± 0.93 J/K/mol
83.66 K | 55.42 ± 0.92 J/K/mol
84.17 K | 56.16 ± 0.94 J/K/mol
84.46 K | 55.88 ± 0.93 J/K/mol
85.26 K | 56.34 ± 0.43 J/K/mol
86.06 K | 56.87 ± 0.44 J/K/mol
86.86 K | 57.38 ± 0.44 J/K/mol
87.65 K | 57.86 ± 0.44 J/K/mol
88.45 K | 58.33 ± 0.45 J/K/mol
89.25 K | 58.77 ± 0.45 J/K/mol
90 K | 59.28 ± 0.42 J/K/mol
90.05 K | 59.23 ± 0.47 J/K/mol
90.85 K | 59.72 ± 0.47 J/K/mol
91.64 K | 60.19 ± 0.47 J/K/mol
92.44 K | 60.74 ± 0.48 J/K/mol
93.24 K | 61.3 ± 0.48 J/K/mol
94.04 K | 61.77 ± 0.49 J/K/mol
94.84 K | 62.19 ± 0.49 J/K/mol
95.63 K | 62.65 ± 0.49 J/K/mol
96.43 K | 63.12 ± 0.5 J/K/mol
97.23 K | 63.64 ± 0.5 J/K/mol
98.02 K | 64.16 ± 0.51 J/K/mol
98.82 K | 64.62 ± 0.51 J/K/mol
99.62 K | 65.04 ± 0.51 J/K/mol
100 K | 65.27 ± 0.5 J/K/mol
100.5 K | 65.53 ± 0.52 J/K/mol
101.45 K | 66.12 ± 0.52 J/K/mol
102.41 K | 66.61 ± 0.52 J/K/mol
103.36 K | 67.11 ± 0.52 J/K/mol
104.32 K | 67.67 ± 0.52 J/K/mol
105.27 K | 68.2 ± 0.53 J/K/mol
106.22 K | 68.79 ± 0.53 J/K/mol
107.18 K | 69.35 ± 0.54 J/K/mol
108.13 K | 69.83 ± 0.54 J/K/mol
109.09 K | 70.36 ± 0.54 J/K/mol
110 K | 70.84 ± 0.58 J/K/mol
110.05 K | 70.8 ± 0.55 J/K/mol
111 K | 71.32 ± 0.55 J/K/mol
111.95 K | 71.94 ± 0.56 J/K/mol
112.91 K | 72.42 ± 0.56 J/K/mol
113.86 K | 72.95 ± 0.56 J/K/mol
114.82 K | 73.43 ± 0.57 J/K/mol
115.77 K | 73.97 ± 0.57 J/K/mol
116.72 K | 74.36 ± 0.57 J/K/mol
117.68 K | 74.92 ± 0.57 J/K/mol
118.63 K | 75.5 ± 0.57 J/K/mol
119.59 K | 75.89 ± 0.58 J/K/mol
120 K | 76.16 ± 0.58 J/K/mol
120.53 K | 76.35 ± 0.58 J/K/mol
121.49 K | 76.8 ± 0.58 J/K/mol
122.44 K | 77.45 ± 0.59 J/K/mol
123.39 K | 77.91 ± 0.59 J/K/mol
124.35 K | 78.3 ± 0.59 J/K/mol
125.3 K | 78.8 ± 0.6 J/K/mol
126.25 K | 79.27 ± 0.6 J/K/mol
127.21 K | 79.82 ± 0.61 J/K/mol
128.16 K | 80.26 ± 0.61 J/K/mol
129.11 K | 80.78 ± 0.61 J/K/mol
130 K | 81.23 ± 0.67 J/K/mol
130.07 K | 81.26 ± 0.62 J/K/mol
131.02 K | 81.7 ± 0.62 J/K/mol
131.97 K | 82.11 ± 0.62 J/K/mol
132.93 K | 82.72 ± 0.62 J/K/mol
133.87 K | 83.14 ± 0.67 J/K/mol
134.82 K | 83.73 ± 0.67 J/K/mol
135.76 K | 84.14 ± 0.67 J/K/mol
136.71 K | 84.56 ± 0.67 J/K/mol
137.66 K | 85.22 ± 0.67 J/K/mol
138.61 K | 85.64 ± 0.67 J/K/mol
139.56 K | 85.97 ± 0.67 J/K/mol
140 K | 86.22 ± 0.67 J/K/mol
140.51 K | 86.55 ± 0.67 J/K/mol
141.46 K | 87.05 ± 0.67 J/K/mol
142.41 K | 87.47 ± 0.67 J/K/mol
143.36 K | 87.8 ± 0.67 J/K/mol
144.31 K | 88.38 ± 0.67 J/K/mol
